Measured values reported in patent publication US7465814B2, “Sulfonate compound and fluorescent probe using the same” (priority 2003, dated 2008).

How the values were obtained:
Assay type in all cases: biochemical
[1] = Reactivity with superoxide and glutathione (FIG. 4); conditions: same conditions as 1-3 Superoxide-selectivity (2)
Experimental: (§1) Moreover, in other conditions than those of the above-described tests, reactivity of all of the compounds 1a to 1d with H2O2, other various kinds of nucleophilic agents, reducing agents and the like also was tested, respectively. More specifically, fluorescent responses of 1a to 1d with respect to a XO-HPX system, a XO-HPX-SOD system, H2O2, ascorbic acid, 1,4-hydroquinone, propylamine, diethylamine, glucose, esterase, a cytochrome P450 reductase+NADPH system, and a diaphorase+NADH system were measured, respectively. Operational processes thereof will be described below. Firstly, 1a to 1d and the above-described reagents were dissolved in HEPES of 10 mM having a pH of 7.4 so as to prepare solutions, respectively. Next, a 96 wellmicroplate was provided, where any of the solutions of 1a to 1d (25 μM, 170 μL) was poured into each of the wells, and furthermore, 30 μL of a blank solution or 30 μL of the solution of the reagent to be reacted therewith was added thereto. Final concentrations of the solutions in the wells were adjusted so that concentrations of the solutions of 1a to 1d respectively could be 21.3 μM, that of XO could be 13.1 mU/mL, those of HPX, H2O2, ascorbic acid, 1,4-hydroquinone, propylamine, diethylamine, glucose, NADPH and NADH respectively could be 50 μM, that of cytochrome P450 reductase could be 68 mU/mL, that of diaphorase could be 65 mU/mL, and that of esterase could be 0.5 U/mL, respectively. Then, after they reacted in the wells at 37° C. for 10 minutes, fluorescent responses were measured respectively. Fluorescence intensity measurement was conducted by using an ETC-272 Peltier thermostatted single cell holder (trade name) manufactured by JASCO Corporation or a SpectraMax GeminiEM fluorescence plate reader (trade name) manufactured by Molecular Devices Corporation provided with a FP-750 spectrofluorometer (trade name) manufactured by JASCO Corporation, and by setting excitation wavelengths and emission wavelengths so that those of 1a, 1b and 1c respectively could be 485 nm and 515 nm, and those of 1d respectively could be 511 nm and 540 nm.
The reactivity of each of the compounds 1d, 5a, 6a, 7 and 8a with respect to superoxide and glutathione (GSH) that is a kind of thiol was tested under the same conditions as those of [1-3. Superoxide-selectivity (2)] in Example 1. […] A vertical axis thereof denotes a fluorescence intensity, which is represented in % of control.

[2] = Quantitativity of fluorescence response in the HPX/XO system, 96-well microplate assay
Experimental: According to a 96 wellmicroplate assay, sensitivity and quantitativity of the fluorescence response of the probe (the compound 1d) in the HPX/XO system were tested. Specifically, a DMSO solution of 1d (10 mM) was diluted by 400-fold with HEPES (pH 7.4, 10 mM) so as to prepare a probe solution, and this probe solution (150 μL) was mixed with a HEPES solution of HPX (10 μL) and a HEPES solution of XO (0.26 U/mL, 10 μL), and was allowed to stand still at 37° C. for 10 minutes, and thereafter, a fluorescence intensity was measured. […] A correlation coefficient of this linear calibration curve was 1.000, and an inclination thereof was 0.58 au/pmol.
More specifically, an assay condition was the same as that in the above-described measurement, except providing a DMSO solution of 1d with a concentration of 5 mM, preparing a probe solution by diluting this DMSO solution by 400-fold with HEPES (pH 7.4, 10 mM), and using 180 μL of the probe solution. Fluorescence intensity measurement was conducted by using an ETC-272 Peltier thermostatted single cell holder (trade name) manufactured by JASCO Corporation or a SpectraMax GeminiEM fluorescence plate reader (trade name) manufactured by Molecular Devices Corporation provided with a FP-750 spectrofluorometer (trade name) manufactured by JASCO Corporation. As a result, a detection limit value of the concentration of HPX was 1.0 pmol (RSD, n=8; 2.9%), and a favorable linear calibration curve with a correlation coefficient of 0.9993 and an inclination of 0.80 au/pmol was obtained, with the concentration of HPX ranging from the detection limit value to 2.0 nmol. The inclination of this linear calibration curve is different from that of the above-described measurement, because of using the arbitrary units for the fluorescence intensities and the different measurement apparatuses.

[3] = Fluorescent response to diethylamine (Table 1); conditions: relative fluorescence intensity, blank = 10; probe 21.3 μM, diethylamine 50 μM, 37° C., 10 minutes
Experimental: as §1

**Q.** For `O=C1OC2(c3ccccc31)c1cc(F)c(OS(=O)(=O)c3ccc([N+](=O)[O-])cc3[N+](=O)[O-])c(F)c1Oc1c2cc(F)c(OS(=O)(=O)c2ccc([N+](=O)[O-])cc2[N+](=O)[O-])c1F` [Compound 1d], which “selectivity (specificity), superoxide versus glutathione, FIG. 4” value [1] is on record?
**A.** excellent superoxide-selectivity

**Q.** And the “detection limit value of HPX” value ([2]; 10 mM DMSO solution diluted 400-fold, 150 μL probe solution, 37° C., 10 minutes)?
**A.** 5.0 pmol

**Q.** What about the “inclination of linear calibration curve” value ([2]; 10 mM DMSO solution diluted 400-fold, 150 μL, HPX from detection limit to 10.0 nmol) of the same molecule?
**A.** 0.58 au/pmol

**Q.** What about the “detection limit value of HPX” value ([2]; different apparatus, 5 mM DMSO solution diluted 400-fold, 180 μL probe solution) of the same molecule?
**A.** 1.0 pmol

**Q.** What about the “inclination of linear calibration curve” value ([2]; different apparatus, 5 mM DMSO solution, 180 μL, HPX from detection limit to 2.0 nmol) of the same molecule?
**A.** 0.80 au/pmol

**Q.** What about the “fluorescent response, diethylamine” value [3] of the same molecule?
**A.** 11
